{
  "source": "patent US10772855B2",
  "about": "“N-bromotaurine solutions and emulsions against abnormal cells” (NASCO AD BIOTECHNOLOGY LABORATORY, priority 2016, dated 2020)",
  "key": {"[1]": {"tested_on": "hyper-proliferating cell lines A549, PC3, HeLa, MDA-MB 231, HepG2", "experiment": "Proliferation assays, statements for all cancer cell lines together", "format": "cell-based", "settings": "for enhancement of anti-proliferative effect against cancer cells as single parameter in NBrT solutions: surplus of taurine or later addition of NaOBr alone, NBrT 62.5-250 μM", "protocol": "(§1) The same accounts by later addition of Taurine to a 200 mM concentration in a 40 mM NBrT solution to cause enhancement of anti-proliferative effect against cancer cells. The enhancement of anti-proliferative effect against cancer cells is achieved by the use of the surplus of taurine present in the solution that is thereafter reacting with a later addition of 40 μM NaOBr solution at 24, 48 and 72 hours of in vitro incubation of cancer cells. That is, with a 1% addition of 40 μM NaOBr solution in total volume of cell cultures at 24, 48 and 72 hours, i.e. 0.4 μM NaOBr, favorable circumstances for fresh NBrT synthesis are made in order to contribute to reaction against abnormally hyper-proliferative cells. […] Normally proliferating cell lines show an evident decrease in their proliferative ability when grown at concentrations of NBrT above 250 μM. It has to be noted that all cells tested are not affected in their proliferation rate when growing in the same medium containing 0.4-40 μM NaOBr. In general, in order to achieve acceleration of anti-proliferative effect on hyper-proliferating cells without causing damage on proliferation of normal cells the concentration of NBrT in solution is 1:5 the concentration of estimated Taurine and the addition of NaOBr solution at latter stages of treatment is 1:100 the concentration of NBrT and 1:500 the concentration of Taurine.\nFollowing, a more detailed description of the enhancement of the anti-proliferative effect obtained with the methodology of this invention, having the aqueous solutions of NBrT/taurine, is given. Stock solution of 4 mM NBrT/20 mM taurine was diluted in final concentrations of 62.5, 125, 250 μM NBrT and 312.5, 625, 1250 μM taurine, respectively, in culture medium DMEM/10% FBS.\n(§2) During cell cultivation NaOBr solutions of 62.5 mM, 125 mM and 250 mM were added in 1:100 dilution to the corresponded 62.5, 125, and 250 μM NBrT and 312.5, 625, 1250 μM taurine every 24/48/72 hours. The calculation of the increase of anti-proliferative activity in cancer cells with the methodology of this invention was made in comparison to the rate of anti-proliferative effect that solutions of NBrT exert in final concentrations of 62.5, 125 and 250 μM in the same cultivation medium. The effect of NBrT/taurine solutions with latter addition of NaOBr, namely the solutions of this present invention were compared with effect obtained by NBrT solutions without a surplus of Taurine and without latter addition of NaOBr using the same cell lines in the same experiment. […] The anti-proliferative effect on all cell cultures was measured as a means of cellular viability by Optical Density at 595 nm using a Tecan reader using a crystal violet reagent. All experiments were performed in triplicate and mean values were used."}, "[2]": {"tested_on": "cancer cell lines A549, PC3, MDA-MB 231, HeLa, HepG2", "experiment": "Anti-proliferative effect of stored versus fresh NBrT aqueous solutions", "format": "cell-based", "settings": "aqueous solution in double distilled water or PBS left for 15, 30 or 45 days at room temperature or 4° C.; all cancer cell lines tested", "protocol": "During studies on NBrT anti-proliferative effect against cancer cells, aqueous solutions of NBrT in double distilled water or phosphate buffered saline where left for 15, 30 and 45 days in room temperature or at 4° C. The anti-proliferative effect of NBrT solutions was decreased by 30-40% each time a respective solution was tested that was left for 15, 30 or 45 days since time of production in comparison with the results of the anti-proliferative effect obtained from the same but fresh solution of NBrT, tested at the same day of production. The same results were noticed in all cancer cell lines tested (A549, PC3, MDA-MB 231, HeLa, and HepG2). The loss of anti-proliferative effect of the aqueous solutions of NBrT (15, 30, 45 days) was tightly connected with the loss of corresponding absorbance at 286 nm having as a reference that a solution of 10 mM NBrT has a peak at 430M^−1 cm^−1 at day of production."}, "[3]": {"tested_on": "fibroblast-like synoviocytes", "settings": "fibroblast-like synoviocytes that participate in rheumatoid arthritis; cited from earlier work"}, "[4]": {"tested_on": "Prostaglandin E2 production", "settings": "via Heme Oxygenase; cited from earlier work"}, "[5]": {"tested_on": "skin of patients with acne vulgaris", "settings": "NBrT up to 5 mM applied onto the skin of patients; cited from earlier work"}, "[6]": {"tested_on": "(Normal fibroblast - control)", "experiment": "Proliferation assay (cellular viability, crystal violet, OD 595 nm), normal fibroblast control", "format": "cell-based", "settings": "human", "excerpt": "(§3) Following, a more detailed description of the enhancement of the anti-proliferative effect obtained with the methodology of this invention, having the aqueous solutions of NBrT/taurine, is given. […]\nas §2, with “The” for “During cell cultivation NaOBr solutions of 62.5 mM, 125 mM and 250 mM were added in 1:100 dilution to the corresponded 62.5, 125, and 250 μM NBrT and 312.5, 625, 1250 μM taurine every 24/48/72 hours. The”, “of anti-proliferative effect that solutions of NBrT exert in final concentrations of 62.5, 125 and 250 μM in the same cultivation medium.” left out"}, "[7]": {"tested_on": "HLF-1 (Normal fibroblast - control)", "experiment": "Proliferation assay (cellular viability, crystal violet, OD 595 nm), normal fibroblast control", "format": "cell-based", "settings": "NBrT concentration range of 12.5-40 μM; surplus of taurine, later addition of NaOBr at 24, 48 and 72 hours", "excerpt": "as §3\nas §2, with “The” for “During cell cultivation NaOBr solutions of 62.5 mM, 125 mM and 250 mM were added in 1:100 dilution to the corresponded 62.5, 125, and 250 μM NBrT and 312.5, 625, 1250 μM taurine every 24/48/72 hours. The”, “of anti-proliferative effect that solutions of NBrT exert in final concentrations of 62.5, 125 and 250 μM in the same cultivation medium.” left out"}, "purulent leg ulcers": {"tested_on": "purulent leg ulcers", "settings": "cited from earlier work"}, "all cells tested": {"tested_on": "all cells tested", "experiment": "Proliferation rate of cells in medium containing NaOBr alone", "format": "cell-based", "protocol": "as §1, with “Taurine. […]” for “Taurine.”"}},
  "note": "Entries after “also recorded” stand apart in the source; their conditions may differ.",
  "data": [
    {"compound": "O=S(=O)(O)CCNBr", "note": "[NBrT, N-bromotaurine]", "values": [
      {"measurement": "anti-proliferative effect on all hyper-proliferating cell lines tested", "setting": "[1]; surplus of taurine and later addition of NaOBr at 24, 48 and 72 hours", "result": "accelerating anti-proliferative effect"},
      {"measurement": "decrease of anti-proliferative effect in comparison with the same but fresh solution", "setting": "[2]", "result": "30-40%"},
      {"measurement": "IL6 and inflammatory mediators (PEG2)", "setting": "[3]", "result": "inhibit"},
      {"measurement": "Prostaglandin E2 production (eicosanoid PGE2)", "setting": "[4]", "result": "inhibition of Prostaglandin E2 production"},
      {"measurement": "side effects on skin", "setting": "[5]", "result": "literally no side effect"},
      {"measurement": "NBrT concentration at which normally proliferating cell lines show an evident decrease in their proliferative ability", "setting": "[6]", "result": "above 250 μM"},
      {"measurement": "effect on normally proliferating fibroblast cell line HFL-1", "setting": "[7]", "result": "literally no effect"}
    ]},
    {"compound": "O=S(=O)(O)CCNCl", "note": "[NCT, N-Chlorotaurine]", "values": [
      {"measurement": "tolerability and toxicity", "setting": "purulent leg ulcers; applied locally onto patient's wounds", "result": "increased tolerability, low toxicity"},
      {"measurement": "efficacy against purulent leg ulcers", "setting": "purulent leg ulcers; phase II clinical study", "result": "significant results against purulent leg ulcers"}
    ]},
    {"compound": "[Na+].[O-]Br", "note": "[NaOBr]", "values": [
      {"measurement": "enhancement of anti-proliferative effect against cancer cells as single parameter in NBrT solutions", "setting": "[1]", "result": "do not exert any enhancement; also recorded: do not confer enhancement"},
      {"measurement": "proliferation rate of all cells tested", "setting": "all cells tested; medium containing 0.4-4 μM NaOBr", "result": "not affected"},
      {"measurement": "proliferation rate of all cells tested", "setting": "all cells tested; medium containing 0.4-40 μM NaOBr", "result": "not affected"}
    ]},
    {"compound": "NCCS(=O)(=O)O", "note": "[Taurine]", "values": [
      {"measurement": "enhancement of anti-proliferative effect against cancer cells as single parameter in NBrT solutions", "setting": "[1]", "result": "do not exert any enhancement"},
      {"measurement": "enhancement of anti-proliferative effect against cancer cells as single parameter in NBrT solutions", "setting": "[1]; listed as taurine", "result": "do not confer enhancement"}
    ]}
  ]
}
